In patent US12295936B2, “Immunomodulating urea azalides” (Zoetis Services LLC, priority 2020, dated 2025):
Read-outs that look alike come from different tables or passages of the source.

Legend:
IL-1β = experiment: LPS-stimulated whole bovine blood assay, MSD cytokine detection; type: cell-based; details: overstimulation of IL-1β, LPS-stimulated bovine whole blood
IL-6 = experiment: as above; type: cell-based; details: read-out: IL-6 (IC50 μM)
Text: In order to correlate RNA sequencing data to cytokine changes the whole blood assay was utilized. […] The enhancement result represents an overall stimulation of cytokine levels due to cellular stress or potential toxicity with increasing concentrations of the compound, representing a typical bell shape response curve for immunomodulatory activity.

P. multocida 46572 = experiment: In vivo mouse lung infection challenge model (murine efficacy); set-up: species or system CD-1 female mice; details: 20 mg/kg subcutaneous, P. multocida challenge; harmonized against the comparative vehicle survival rate
Experimental: The challenge organism was P. multocida 46572. Target challenge concentration was 5×10^2 CFU/mouse. Isolated colonies from overnight growth (37° C. with 5% CO2) on trypticase soy agar (TSA II) blood plates were transferred to room temperature Brain Heart Infusion Broth (BHIB). The broth culture was incubated 3.5-4 hours to approximately mid-log phase of growth, as measured by forward light scatter at 600 nm (OD600, 0.200). The culture was centrifuged to collect the bacterial pellet. The pellet was re-suspended in BHIB and adjusted to provide an approximate concentration of 2.7 log^10 colony forming units (CFU) in 0.04 mL at the highest concentration. The challenge inoculum concentration was confirmed by serial dilutions of the inoculum for CFU enumeration. On Day −5, CD-1 female mice were received. Mice were given standard rodent diet and water ad libitum. On Day 0, bacterial inoculum (0.04 mL) was administered to each mouse (n=36) intranasally. Compounds of the invention were dosed at 20 mg/kg (0.1 mL) in a buffered (˜pH 5.4) propylene glycol, monothioglycerol and water solution by subcutaneous injection. Animals were observed from Days 1-10. The study was terminated on Day 10. In addition, some treatment groups were sampled at 6, 24, and 48 hours post bacterial challenge for RNA sequence analysis of lung tissue.
The murine efficacy model (P. multocida challenge) was optimized, and the treatment group size was powered to be able to observe statistically significant improvement of survival to expected ranges for immunomodulatory compounds. The experimental design was a randomized complete block design. Mice were individually identified and treatment groups comingled within a cage, with every treatment group equally represented across cages. Mortality was the primary variable. Mortality data was analyzed using a generalized mixed model with fixed effect of treatment and random effect of block. Survival time was also analyzed using the SAS PHREG (survival analysis) procedure to examine whether there were significant differences between treatment groups and the control group. Numerous compounds of the invention and M9 (positive control) were tested in this model at a dose of 20 mg/kg. Typical percent survival for no treatment control is in the range of 0-20% based on study to study variation in challenge inoculum and rate of infection. […] Mouse survival for M9 was about 90-100%, further supporting its antibacterial properties against the bacterial strain (Table 3). Survival values presented are harmonized against the comparative vehicle survival rate.

TNF-α = experiment: LPS-stimulated whole bovine blood assay, MSD cytokine detection; type: cell-based; details: Bos taurus, read-out: TNF-α (IC50 μM)
[1] = tested on: BRD pathogens, M. haemolytica and P. multocida; experiment: MIC screening panel of BRD pathogens (antibacterial / non-antibacterial); details: read-out: antibacterial / non-antibacterial (MIC for the BRD pathogens)
[2] = LPS-stimulated bovine whole blood
[3] = Bos taurus, LPS-stimulated bovine whole blood

| SMILES | IL-1β OS of LPS (IL-1β) | IC50 (IL-6; [2]) | Mouse Murine Percent Survival (P. multocida 46572) | IC50 (TNF-α; [2]) | IC50 (IL-6; [3]) | MIC [1] | IC50 (TNF-α) | IC50 (IL-6; Bos taurus) |
| --- | --- | --- | --- | --- | --- | --- | --- | --- |
| CC[C@H]1OC(=O)[C@H](C)[C@@H](O[C@H]2C[C@@](C)(OC)[C@@H](O)[C@H](C)O2)[C@H](C)[C@@H](O[C@@H]2O[C@H](C)C[C@H](N(C)C(=O)N(C)c3ccc(C(F)(F)F)cc3)[C@H]2O)[C@](C)(O)C[C@@H](C)CN[C@H](C)[C@@H](O)[C@]1(C)O [Example B-2, 1-((2S,3R,4S,6R)-2-(((2R,3S,4R,5R,8R,10R,11R,12S,13S,4R)-2-ethyl-3,4,10-trihydroxy-13-(((2R,4R,5S,6S)-5-hydroxy-4-methoxy-4,6-dimethyltetrahydro-2H-pyran-2-yl)oxy)-3,5,8,10,12,14-hexamethyl-15-oxo-1-oxa-6-azacyclopentadecan-11-yl)oxy)-3-hydroxy-6-methyltetrahydro-2H-pyran-4-yl)-1,3-dimethyl-3-(4-(trifluoromethyl)phenyl)urea] | 40 µM | 52 µM | 28% |  |  |  |  |  |
| CC[C@H]1OC(=O)[C@H](C)[C@@H](O[C@H]2C[C@@](C)(OC)[C@@H](O)[C@H](C)O2)[C@H](C)[C@@H](O[C@@H]2O[C@H](C)C[C@H](N(C)C(=O)N(C)c3ccc(C(F)(F)F)cc3)[C@H]2O)[C@](C)(O)C[C@@H](C)CN(C)[C@H](C)[C@@H](O)[C@]1(C)O [Example B-6, 1-((2S,3R,4S,6R)-2-(((2R,3S,4R,5R,8R,10R,11R,12S,13S,14R)-2-ethyl-3,4,10-trihydroxy-13-(((2R,4R,5S,6S)-5-hydroxy-4-methoxy-4,6-dimethyltetrahydro-2H-pyran-2-yl)oxy)-3,5,6,8,10,12,14-heptamethyl-15-oxo-1-oxa-6-azacyclopentadecan-11-yl)oxy)-3-hydroxy-6-methyltetrahydro-2H-pyran-4-yl)-1,3-dimethyl-3-(4-(trifluoromethyl)phenyl)urea] | 40 µM |  | 1% | 12 µM | 41 µM |  |  |  |
| CC[C@H]1OC(=O)[C@H](C)[C@@H](O[C@H]2C[C@@](C)(OC)[C@@](C)(O)[C@H](C)O2)[C@H](C)[C@@H](O[C@@H]2O[C@H](C)C[C@H](N(C)C(=O)N(C)c3ccc(C(F)(F)F)cc3)[C@H]2O)[C@](C)(O)C[C@@H](C)CN[C@H](C)[C@@H](O)[C@]1(C)O [Example B-13, 1-((2S,3R,4S,6R)-2-(((2R,3S,4R,5R,8R,10R,11R,12S,13S,14R)-2-ethyl-3,4,10-trihydroxy-13-(((2R,4R,5S,6S)-5-hydroxy-4-methoxy-4,5,6-trimethyltetrahydro-2H-pyran-2-yl)oxy)-3,5,8,10,12,14-hexamethyl-15-oxo-1-oxa-6-azacyclopentadecan-11-yl)oxy)-3-hydroxy-6-methyltetrahydro-2H-pyran-4-yl)-1,3-dimethyl-3-(4-(trifluoromethyl)phenyl)urea] | 16 µM |  | 48% | 14 µM | 51 µM | > 64 µg/mL |  |  |
| CCCNC[C@]1(O)[C@H](C)O[C@@H](O[C@H]2[C@H](C)[C@@H](O[C@@H]3O[C@H](C)C[C@H](N(C)C(=O)Nc4cccnc4)[C@H]3O)[C@](C)(O)C[C@@H](C)CN[C@H](C)[C@@H](O)[C@](C)(O)[C@@H](CC)OC(=O)[C@@H]2C)C[C@@]1(C)OC [Example H-72, 1-((2S,3R,4S,6R)-2-(((2R,3S,4R,5R,8R,10R,11R,12S,13S,14R)-2-ethyl-3,4,10-trihydroxy-13-(((2R,4R,5S,6S)-5-hydroxy-4-methoxy-4,6-dimethyl-5-((propylamino)methyl)tetrahydro-2H-pyran-2-yl)oxy)-3,5,8,10,12,14-hexamethyl-15-oxo-1-oxa-6-azacyclopentadecan-11-yl)oxy)-3-hydroxy-6-methyltetrahydro-2H-pyran-4-yl)-1-methyl-3-(pyridin-3-yl)urea] | >500 µM |  | 4% | > 500 µM | > 500 µM |  |  |  |
| CCCNC[C@]1(O)[C@H](C)O[C@@H](O[C@H]2[C@H](C)[C@@H](O[C@@H]3O[C@H](C)C[C@H](N(C)C(=O)Nc4cnn(C)c4)[C@H]3O)[C@](C)(O)C[C@@H](C)CN[C@H](C)[C@@H](O)[C@](C)(O)[C@@H](CC)OC(=O)[C@@H]2C)C[C@@]1(C)OC [Example H-74, 1-((2S,3R,4S,6R)-2-(((2R,3S,4R,5R,8R,10R,11R,12S,13S,14R)-2-ethyl-3,4,10-trihydroxy-13-(((2R,4R,5S,6S)-5-hydroxy-4-methoxy-4,6-dimethyl-5-((propylamino)methyl)tetrahydro-2H-pyran-2-yl)oxy)-3,5,8,10,12,14-hexamethyl-15-oxo-1-oxa-6-azacyclopentadecan-11-yl)oxy)-3-hydroxy-6-methyltetrahydro-2H-pyran-4-yl)-1-methyl-3-(1-methyl-1H-pyrazol-4-yl)urea] | >500 µM |  | 11% |  |  |  | ~600 µM | > 500 µM |
| CCCNC(=O)N(C)[C@H]1C[C@@H](C)O[C@@H](O[C@@H]2[C@@H](C)[C@H](O[C@H]3C[C@@](C)(OC)[C@](O)(CNc4ccc(C(F)(F)F)cc4)[C@H](C)O3)[C@@H](C)C(=O)O[C@H](CC)[C@@](C)(O)[C@H](O)[C@@H](C)NC[C@H](C)C[C@@]2(C)O)[C@@H]1O [Example H-95, 1-((2S,3R,4S,6R)-2-(((2R,3S,4R,5R,8R,10R,11R,12S,13S,14R)-2-ethyl-3,4,10-trihydroxy-13-(((2R,4R,5S,6S)-5-hydroxy-4-methoxy-4,6-dimethyl-5-(((4-(trifluoromethyl)phenyl)amino)methyl)tetrahydro-2H-pyran-2-yl)oxy)-3,5,8,10,12,14-hexamethyl-15-oxo-1-oxa-6-azacyclopentadecan-11-yl)oxy)-3-hydroxy-6-methyltetrahydro-2H-pyran-4-yl)-1-methyl-3-propylurea] | 13 µM |  | 39% | 10 µM |  | > 64 µg/mL |  |  |
| CC[C@H]1OC(=O)[C@H](C)[C@@H](O[C@H]2C[C@@](C)(OC)[C@](O)(CN3CCN(C)CC3)[C@H](C)O2)[C@H](C)[C@@H](O[C@@H]2O[C@H](C)C[C@H](N(C)C(=O)NC(C)(C)C)[C@H]2O)[C@](C)(O)C[C@@H](C)CN[C@H](C)[C@@H](O)[C@]1(C)O [Example J-3, 3-(tert-butyl)-1-((2S,3R,4S,6R)-2-(((2R,3S,4R,5R,8R,10R,11R,12S,13S,14R)-2-ethyl-3,4,10-trihydroxy-13-(((2R,4R,5S,6S)-5-hydroxy-4-methoxy-4,6-dimethyl-5-((4-methylpiperazin-1-yl)methyl)tetrahydro-2H-pyran-2-yl)oxy)-3,5,8,10,12,14-hexamethyl-15-oxo-1-oxa-6-azacyclopentadecan-11-yl)oxy)-3-hydroxy-6-methyltetrahydro-2H-pyran-4-yl)-1-methylurea] | 200 µM |  | 25% | 200 µM | 225 µM |  |  |  |
| CC[C@H]1OC(=O)[C@H](C)[C@@H](O[C@H]2C[C@@](C)(OC)[C@](O)(CN3CCN(C)CC3)[C@H](C)O2)[C@H](C)[C@@H](O[C@@H]2O[C@H](C)C[C@H](N(C)C(=O)Nc3ccccc3)[C@H]2O)[C@](C)(O)C[C@@H](C)CN[C@H](C)[C@@H](O)[C@]1(C)O [Example J-7, 1-((2S,3R,4S,6R)-2-(((2R,3S,4R,5R,8R,10R,11R,12S,13S,14R)-2-ethyl-3,4,10-trihydroxy-13-(((2R,4R,5S,6S)-5-hydroxy-4-methoxy-4,6-dimethyl-5-((4-methylpiperazin-1-yl)methyl)tetrahydro-2H-pyran-2-yl)oxy)-3,5,8,10,12,14-hexamethyl-15-oxo-1-oxa-6-azacyclopentadecan-11-yl)oxy)-3-hydroxy-6-methyltetrahydro-2H-pyran-4-yl)-1-methyl-3-phenylurea] | 200 µM |  | 39% | 200 µM | > 500 µM |  |  |  |
